molecular target: human Nav1.8 (Homo sapiens (Human), UniProt Q9Y5Y9); test: E-VIPR optical membrane potential assay with electrical stimulation; type: cell-based; conditions: HEK cells expressing human Nav1.8
Excerpt: Sodium channels are voltage-dependent proteins that can be activated by inducing membrane voltage changes by applying electric fields. […] The instrument comprises a microtiter plate handler, an optical system for exciting the coumarin dye while simultaneously recording the coumarin and oxonol emissions, a waveform generator, a current- or voltage-controlled amplifier, and a device for inserting electrodes in well. Under integrated computer control, this instrument passes user-programmed electrical stimulus protocols to cells within the wells of the microtiter plate.
24 hours before the assay on E-VIPR, HEK cells expressing human Nav1.8 were seeded in 384-well poly-lysine coated plates at 15,000-20,000 cells per well. […] Cells were grown in vented cap flasks, in 90% humidity and 5% CO2.
To make the solution added volume of 10% Pluronic F127 stock equal to volumes of CC2-DMPE+DiSBAC6(3). The order of preparation was first mixing Pluronic and CC2-DMPE, then adding DiSBAC6(3) while vortexing, then adding Bath1+β-Cyclodextrin.
1) Pre-spotted compounds (in neat DMSO) into compound plates. […] Final compound plate volume was 80 μL (80-fold intermediate dilution from 1 μL DMSO spot; 160-fold final dilution after transfer to cell plate).
2) Prepared Hexyl Dye Solution.
3) Prepared cell plates. On the day of the assay, medium was aspirated and cells were washed three times with 100 μL of Bath1 Solution, maintaining 25 μL residual volume in each well.
4) Dispensed 25 μL per well of Hexyl Dye Solution into cell plates. Incubated for 20-35 minutes at room temp or ambient conditions.
5) Dispensed 80 μL per well of Bath1 into compound plates. Acid Yellow-17 (1 mM) was added and Potassium Chloride was altered from 4.5 to 20 mM depending on the NaV subtype and assay sensitivity.
6) Washed cell plates three times with 100 μL per well of Bath1, leaving 25 μL of residual volume. Then transferred 25 uL per well from Compound Plates to Cell Plates. Incubated for 20-35 minutes at room temp/ambient condition.
7) Read Plate on E-VIPR. […] A pre-stimulus recording was performed for 0.5 seconds to obtain the un-stimulated intensities baseline. The stimulatory waveform was followed by 0.5 seconds of post-stimulation recording to examine the relaxation to the resting state.
Data was analyzed and reported as normalized ratios of emission intensities measured in the 460 nm and 580 nm channels. The response as a function of time was reported as the ratios obtained using the following formula: […]
The data was further reduced by calculating the initial (Ri) and final (Rf) ratios. These were the average ratio values during part or all of the pre-stimulation period, and during sample points during the stimulation period. The response to the stimulus R=Rf/Ri was then calculated and reported as a function of time.
Control responses were obtained by performing assays in the presence of a compound with the desired properties (positive control), such as tetracaine, and in the absence of pharmacological agents (negative control). Responses to the negative (N) and positive (P) controls were calculated as above. The compound antagonist activity A is defined as:
[formula] where R is the ratio response of the test compound

human Nav1.8, sequence (Q9Y5Y9 whole entry): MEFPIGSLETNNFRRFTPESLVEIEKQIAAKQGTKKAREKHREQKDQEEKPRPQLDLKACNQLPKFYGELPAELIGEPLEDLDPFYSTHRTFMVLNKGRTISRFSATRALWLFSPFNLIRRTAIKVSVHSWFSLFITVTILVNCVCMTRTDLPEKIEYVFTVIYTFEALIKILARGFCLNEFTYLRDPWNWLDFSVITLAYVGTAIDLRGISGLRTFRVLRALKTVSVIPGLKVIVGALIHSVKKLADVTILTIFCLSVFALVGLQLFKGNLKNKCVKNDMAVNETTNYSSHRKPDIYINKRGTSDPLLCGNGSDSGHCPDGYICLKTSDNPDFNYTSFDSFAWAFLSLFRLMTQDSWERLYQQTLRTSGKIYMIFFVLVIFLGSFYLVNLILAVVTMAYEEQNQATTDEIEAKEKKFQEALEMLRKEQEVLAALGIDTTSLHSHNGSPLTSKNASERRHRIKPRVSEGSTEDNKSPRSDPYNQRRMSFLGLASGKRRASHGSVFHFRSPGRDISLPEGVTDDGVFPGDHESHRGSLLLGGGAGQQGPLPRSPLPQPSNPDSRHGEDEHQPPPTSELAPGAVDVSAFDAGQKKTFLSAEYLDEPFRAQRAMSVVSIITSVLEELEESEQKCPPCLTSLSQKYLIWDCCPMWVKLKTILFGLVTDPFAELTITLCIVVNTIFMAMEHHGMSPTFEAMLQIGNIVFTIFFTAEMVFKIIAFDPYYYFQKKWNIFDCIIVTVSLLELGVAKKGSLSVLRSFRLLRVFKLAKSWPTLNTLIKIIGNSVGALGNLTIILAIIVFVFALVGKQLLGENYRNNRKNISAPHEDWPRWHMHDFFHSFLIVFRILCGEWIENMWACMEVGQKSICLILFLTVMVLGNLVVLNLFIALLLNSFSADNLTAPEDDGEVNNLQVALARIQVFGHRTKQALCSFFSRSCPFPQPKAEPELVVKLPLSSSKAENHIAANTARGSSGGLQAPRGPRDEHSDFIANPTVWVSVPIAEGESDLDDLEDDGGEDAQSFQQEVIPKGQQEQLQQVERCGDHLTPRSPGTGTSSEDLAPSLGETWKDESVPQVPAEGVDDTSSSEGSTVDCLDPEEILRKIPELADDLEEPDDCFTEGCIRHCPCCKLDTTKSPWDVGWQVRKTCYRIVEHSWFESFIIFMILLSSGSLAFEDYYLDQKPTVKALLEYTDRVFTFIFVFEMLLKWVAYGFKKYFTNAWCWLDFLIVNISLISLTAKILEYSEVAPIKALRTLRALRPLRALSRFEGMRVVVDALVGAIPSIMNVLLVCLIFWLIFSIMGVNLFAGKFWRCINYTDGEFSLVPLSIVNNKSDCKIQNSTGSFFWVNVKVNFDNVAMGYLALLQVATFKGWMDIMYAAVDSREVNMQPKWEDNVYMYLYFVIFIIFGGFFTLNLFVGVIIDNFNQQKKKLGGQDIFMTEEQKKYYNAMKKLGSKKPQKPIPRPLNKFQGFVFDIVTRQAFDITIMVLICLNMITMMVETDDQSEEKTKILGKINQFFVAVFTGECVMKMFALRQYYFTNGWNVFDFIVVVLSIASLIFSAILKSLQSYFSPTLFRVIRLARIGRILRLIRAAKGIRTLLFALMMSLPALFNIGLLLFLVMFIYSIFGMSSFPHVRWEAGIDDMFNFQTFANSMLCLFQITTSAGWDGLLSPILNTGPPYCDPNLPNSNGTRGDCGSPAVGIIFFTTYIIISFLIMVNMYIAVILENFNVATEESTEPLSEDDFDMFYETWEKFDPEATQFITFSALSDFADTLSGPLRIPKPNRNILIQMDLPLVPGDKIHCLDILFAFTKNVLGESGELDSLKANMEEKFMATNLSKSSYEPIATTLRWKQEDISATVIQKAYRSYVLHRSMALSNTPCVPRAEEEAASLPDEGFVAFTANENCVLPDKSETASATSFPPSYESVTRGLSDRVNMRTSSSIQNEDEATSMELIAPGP

In order of falling IC50:
1. O=C(Nc1cc[nH]c(=O)c1)c1cc(OC(F)(F)F)ccc1Oc1c(F)cccc1F [Compound 34, 2-(2,6-difluorophenoxy)-N-(2-oxo-1,2-dihydropyridin-4-yl)-5-(trifluoromethoxy)benzamide]  12000 nM
2. O=C(Nc1cc[nH]c(=O)c1)c1cc(C(F)(F)F)ccc1Oc1c(F)cccc1F [Compound 26, 2-(2,6-difluorophenoxy)-N-(2-oxo-1,2-dihydropyridin-4-yl)-5-(trifluoromethyl)benzamide]  9650 nM
3. Cc1ncccc1Oc1ccc(OC(F)(F)F)cc1C(=O)Nc1cc[nH]c(=O)c1 [Compound 151, 2-((2-methylpyridin-3-yl)oxy)-N-(2-oxo-1,2-dihydropyridin-4-yl)-5-(trifluoromethoxy)benzamide]  8400 nM
4. COc1cc(F)cc(Oc2ccc(C(F)(F)F)cc2C(=O)Nc2cc[nH]c(=O)c2)c1 [Compound 57, 2-(3-fluoro-5-methoxyphenoxy)-N-(2-oxo-1,2-dihydropyridin-4-yl)-5-(trifluoromethyl)benzamide]  6900 nM
5. Cc1ncccc1Oc1ccc(C(F)(F)F)cc1C(=O)Nc1cc[nH]c(=O)c1 [Compound 150, 2-((2-methylpyridin-3-yl)oxy)-N-(2-oxo-1,2-dihydropyridin-4-yl)-5-(trifluoromethyl)benzamide]  6600 nM
6. O=C(Nc1cc[nH]c(=O)c1)c1cc(C(F)(F)F)ccc1Oc1ccc(C(F)(F)F)cc1 [Compound 74, N-(2-oxo-1,2-dihydropyridin-4-yl)-5-(trifluoromethyl)-2-(4-(trifluoromethyl)phenoxy)benzamide]  5180 nM
7. O=C(Nc1cc[nH]c(=O)c1)c1cc(F)ccc1Oc1ccccc1 [Compound 95, 5-fluoro-N-(2-oxo-1,2-dihydropyridin-4-yl)-2-phenoxybenzamide]  3450 nM
8. COc1cccc(F)c1Oc1ccc(C(F)(F)F)cc1C(=O)Nc1cc[nH]c(=O)c1 [Compound 48, 2-(2-fluoro-6-methoxyphenoxy)-N-(2-oxo-1,2-dihydropyridin-4-yl)-5-(trifluoromethyl)benzamide]  2700 nM
9. Cc1cccc(F)c1Oc1cc(Cl)ccc1C(=O)Nc1cc[nH]c(=O)c1 [Compound 17, 4-chloro-2-(2-fluoro-6-methylphenoxy)-N-(2-oxo-1,2-dihydropyridin-4-yl)benzamide]  1800 nM
10. O=C(Nc1cc[nH]c(=O)c1)c1cc(C(F)(F)F)ccc1OC1C[C@@H]2C[C@@H]2C1 (stereo partly drawn) [Compound 135]  1650 nM
11. CC(C)COc1ccc(C(F)(F)F)cc1C(=O)Nc1cc[nH]c(=O)c1 [Compound 131, 2-isobutoxy-N-(2-oxo-1,2-dihydropyridin-4-yl)-5-(trifluoromethyl)benzamide]  1500 nM
12. Cc1cc(C)c(Oc2ccc(C(F)(F)F)cc2C(=O)Nc2cc[nH]c(=O)c2)cc1C [Compound 93, N-(2-oxo-1,2-dihydropyridin-4-yl)-5-(trifluoromethyl)-2-(2,4,5-trimethylphenoxy)benzamide]  1450 nM
13. Cc1cccc(F)c1Oc1ccc(OC(F)(F)F)cc1C(=O)Nc1cc[nH]c(=O)c1 [Compound 39, 2-(2-fluoro-6-methylphenoxy)-N-(2-oxo-1,2-dihydropyridin-4-yl)-5-(trifluoromethoxy)benzamide]  690 nM
14. CC1(C)CC1COc1cc(C(F)(F)F)ccc1C(=O)Nc1cc[nH]c(=O)c1 (stereo not drawn) [Compound 124, 2-((2,2-dimethylcyclopropyl)methoxy)-N-(2-oxo-1,2-dihydropyridin-4-yl)-4-(trifluoromethyl)benzamide]  485 nM
15. O=C(Nc1cc[nH]c(=O)c1)c1cc(F)ccc1Oc1ccc(C2CC2)cc1 [Compound 96, 2-(4-cyclopropylphenoxy)-5-fluoro-N-(2-oxo-1,2-dihydropyridin-4-yl)benzamide]  400 nM
16. Cc1ccc(Oc2ccc(C(F)(F)F)cc2C(=O)Nc2cc[nH]c(=O)c2)cc1 [Compound 27, N-(2-oxo-1,2-dihydropyridin-4-yl)-2-(p-tolyloxy)-5-(trifluoromethyl)benzamide]  340 nM
17. O=C(Nc1cc[nH]c(=O)c1)c1cc(C(F)(F)F)ccc1OCCC(F)(F)F [Compound 132, N-(2-oxo-1,2-dihydropyridin-4-yl)-5-(trifluoromethyl)-2-(3,3,3-trifluoropropoxy)benzamide]  330 nM
18. O=C(Nc1cc[nH]c(=O)c1)c1cc(F)ccc1Oc1ccc(OCC2CC2)cc1 [Compound 108, 2-(4-(cyclopropylmethoxy)phenoxy)-5-fluoro-N-(2-oxo-1,2-dihydropyridin-4-yl)benzamide]  285 nM
19. Cc1cc(NC(=O)c2cc(C(F)(F)F)ccc2Oc2ccc(F)cc2C)cc(=O)[nH]1 [Compound 61, 2-(4-fluoro-2-methylphenoxy)-N-(6-methyl-2-oxo-1,2-dihydropyridin-4-yl)-5-(trifluoromethyl)benzamide]  113 nM
20. O=C(Nc1cc[nH]c(=O)c1)c1cc(C(F)(F)F)ccc1Oc1ccccc1Cl [Compound 65, 2-(2-chlorophenoxy)-N-(2-oxo-1,2-dihydropyridin-4-yl)-5-(trifluoromethyl)benzamide]  107 nM
21. O=C(Nc1cc[nH]c(=O)c1)c1ccc(C(F)(F)F)cc1Oc1ccccc1OC(F)(F)F [Compound 80, N-(2-oxo-1,2-dihydropyridin-4-yl)-2-(2-(trifluoromethoxy)phenoxy)-4-(trifluoromethyl)benzamide]  105 nM
22. Cc1ccccc1Oc1ccc(OC(F)(F)F)cc1C(=O)Nc1cc[nH]c(=O)c1 [Compound 36, N-(2-oxo-1,2-dihydropyridin-4-yl)-2-(o-tolyloxy)-5-(trifluoromethoxy)benzamide]  101 nM
23. COc1ccc(F)cc1Oc1ccc(C(F)(F)F)cc1C(=O)Nc1cc[nH]c(=O)c1 [Compound 52, 2-(5-fluoro-2-methoxyphenoxy)-N-(2-oxo-1,2-dihydropyridin-4-yl)-5-(trifluoromethyl)benzamide]  94 nM
24. O=C(Nc1cc[nH]c(=O)c1)c1ccc(C(F)(F)F)cc1Oc1ccccc1 [Compound 9, N-(2-oxo-1,2-dihydropyridin-4-yl)-2-phenoxy-4-(trifluoromethyl)benzamide]  93 nM
25. CCOc1ccccc1Oc1ccc(C(F)(F)F)cc1C(=O)Nc1cc[nH]c(=O)c1 [Compound 46, 2-(2-ethoxyphenoxy)-N-(2-oxo-1,2-dihydropyridin-4-yl)-5-(trifluoromethyl)benzamide]  64 nM
26. O=C(Nc1cc[nH]c(=O)c1)c1cc(C(F)(F)F)ccc1Oc1ccc(F)cc1F [Compound 24, 2-(2,4-difluorophenoxy)-N-(2-oxo-1,2-dihydropyridin-4-yl)-5-(trifluoromethyl)benzamide]  58 nM
27. CCCOc1ccc(Oc2ccc(C(F)(F)F)cc2C(=O)Nc2cc[nH]c(=O)c2)cc1 [Compound 53, N-(2-oxo-1,2-dihydropyridin-4-yl)-2-(4-propoxyphenoxy)-5-(trifluoromethyl)benzamide]  47 nM
28. O=C(Nc1cc[nH]c(=O)c1)c1ccc(C(F)(F)F)cc1Oc1ccc(F)cc1 [Compound 5, 2-(4-fluorophenoxy)-N-(2-oxo-1,2-dihydropyridin-4-yl)-4-(trifluoromethyl)benzamide]  39 nM
29. CCCOc1ccccc1Oc1ccc(C(F)(F)F)cc1C(=O)Nc1cc[nH]c(=O)c1 [Compound 62, N-(2-oxo-1,2-dihydropyridin-4-yl)-2-(2-propoxyphenoxy)-5-(trifluoromethyl)benzamide]  34 nM
30. COc1c(F)cccc1Oc1cc(C(F)(F)F)ccc1C(=O)Nc1cc[nH]c(=O)c1 [Compound 87, 2-(3-fluoro-2-methoxyphenoxy)-N-(2-oxo-1,2-dihydropyridin-4-yk)-4-(trifluoromethyl)benzamide]  27 nM
31. COc1ccc(Oc2cc(C(F)(F)F)ccc2C(=O)Nc2cc[nH]c(=O)c2)cc1F [Compound 81, 2-(3-fluoro-4-methoxyphenoxy)-N-(2-oxo-1,2-dihydropyridin-4-yl)-4-(trifluoromethyl)benzamide]  26 nM
32. Cc1cc(Cl)ccc1Oc1ccc(C(F)(F)F)cc1C(=O)Nc1cc[nH]c(=O)c1 [Compound 50, 2-(4-chloro-2-methylphenoxy)-N-(2-oxo-1,2-dihydropyridin-4-yl)-5-(trifluoromethyl)benzamide]  19 nM
33. COc1ccc(Oc2ccc(C(F)(F)F)cc2C(=O)Nc2cc[nH]c(=O)c2)c(C)c1 [Compound 63, 2-(4-methoxy-2-methylphenoxy)-N-(2-oxo-1,2-dihydropyridin-4-yl)-5-(trifluoromethyl)benzamide]  18 nM
